How the values were obtained:
[1] = DRUGMATRIX: Potassium Channel [KATP] radioligand binding (ligand: [3H] Glyburide); type: cell membranes, Membrane; details: hit-t15; Not Active = under 50% inhibition at 10 µM
[2] = molecular target: Cytochrome P450 2E1 (Homo sapiens, UniProt P05181); details: bti-tn-5b1-4; further: in other assays of this panel Not Active means under 50% inhibition at 10 µM
[3] = molecular target: T1, C-C chemokine receptor type 4 (Homo sapiens, UniProt P51679); type: cell membranes, Membrane; details: chem-1; further: in other assays of this panel Not Active means under 50% inhibition at 10 µM
T1 sequence (P51679 whole entry): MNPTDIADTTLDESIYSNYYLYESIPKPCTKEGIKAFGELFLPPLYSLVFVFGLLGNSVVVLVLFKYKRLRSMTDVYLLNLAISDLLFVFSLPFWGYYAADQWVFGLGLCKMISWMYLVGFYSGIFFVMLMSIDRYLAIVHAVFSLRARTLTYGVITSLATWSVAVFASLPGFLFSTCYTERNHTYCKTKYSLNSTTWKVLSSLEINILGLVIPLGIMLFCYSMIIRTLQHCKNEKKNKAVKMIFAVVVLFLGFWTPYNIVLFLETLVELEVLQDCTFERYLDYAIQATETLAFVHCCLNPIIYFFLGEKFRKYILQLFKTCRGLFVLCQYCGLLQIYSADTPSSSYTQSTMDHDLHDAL

[4] = DRUGMATRIX: Platelet-Derived Growth Factor (PDGF) radioligand binding (ligand: [125I] PDGF); type: cell-based; details: nih3t3; Not Active = under 50% inhibition at 10 µM
[5] = molecular target: Cytochrome P450 3A4 (Homo sapiens, UniProt P08684); details: bti-tn-5b1-4; further: in other assays of this panel Not Active means under 50% inhibition at 10 µM
Chain of Cytochrome P450 3A4 (P08684 whole entry): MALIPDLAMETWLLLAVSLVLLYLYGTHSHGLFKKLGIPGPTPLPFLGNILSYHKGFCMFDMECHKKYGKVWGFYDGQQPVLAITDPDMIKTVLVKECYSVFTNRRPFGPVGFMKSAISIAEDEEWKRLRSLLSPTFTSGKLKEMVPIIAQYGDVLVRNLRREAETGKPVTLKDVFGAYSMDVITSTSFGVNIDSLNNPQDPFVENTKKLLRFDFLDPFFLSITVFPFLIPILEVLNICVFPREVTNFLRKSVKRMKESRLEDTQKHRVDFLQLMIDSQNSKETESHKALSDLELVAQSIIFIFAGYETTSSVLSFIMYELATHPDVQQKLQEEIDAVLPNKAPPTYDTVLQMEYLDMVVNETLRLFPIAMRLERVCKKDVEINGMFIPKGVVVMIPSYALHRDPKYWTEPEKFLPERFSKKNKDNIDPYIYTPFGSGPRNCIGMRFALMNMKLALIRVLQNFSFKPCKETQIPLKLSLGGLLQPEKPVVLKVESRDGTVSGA

[6] = molecular target: Insulin receptor (Rattus norvegicus, UniProt P15127); type: cell membranes, Wistar, Liver, Membrane; further: in other assays of this panel Not Active means under 50% inhibition at 10 µM
Chain of Insulin receptor (P15127 27-759 limits assumed): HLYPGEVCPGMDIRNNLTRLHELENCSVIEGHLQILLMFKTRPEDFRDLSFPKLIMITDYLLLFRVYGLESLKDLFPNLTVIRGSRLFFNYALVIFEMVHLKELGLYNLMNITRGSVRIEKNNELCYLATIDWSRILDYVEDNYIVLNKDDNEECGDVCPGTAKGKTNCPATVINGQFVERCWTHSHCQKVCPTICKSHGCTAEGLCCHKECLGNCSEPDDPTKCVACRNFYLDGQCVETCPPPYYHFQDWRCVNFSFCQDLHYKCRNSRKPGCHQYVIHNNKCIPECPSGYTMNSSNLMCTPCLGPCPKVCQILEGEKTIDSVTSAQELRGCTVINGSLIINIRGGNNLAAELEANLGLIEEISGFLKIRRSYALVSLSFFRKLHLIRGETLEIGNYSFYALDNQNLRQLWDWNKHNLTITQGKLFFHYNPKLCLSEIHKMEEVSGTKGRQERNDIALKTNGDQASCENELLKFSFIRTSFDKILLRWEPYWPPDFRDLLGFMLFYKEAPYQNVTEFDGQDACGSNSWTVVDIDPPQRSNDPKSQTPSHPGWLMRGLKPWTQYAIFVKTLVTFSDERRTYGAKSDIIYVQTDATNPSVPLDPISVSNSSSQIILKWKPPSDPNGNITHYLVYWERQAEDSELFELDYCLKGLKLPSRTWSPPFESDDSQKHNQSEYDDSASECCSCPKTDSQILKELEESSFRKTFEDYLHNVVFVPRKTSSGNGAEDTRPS
Chain of Insulin receptor (P15127 764-1383 limits assumed): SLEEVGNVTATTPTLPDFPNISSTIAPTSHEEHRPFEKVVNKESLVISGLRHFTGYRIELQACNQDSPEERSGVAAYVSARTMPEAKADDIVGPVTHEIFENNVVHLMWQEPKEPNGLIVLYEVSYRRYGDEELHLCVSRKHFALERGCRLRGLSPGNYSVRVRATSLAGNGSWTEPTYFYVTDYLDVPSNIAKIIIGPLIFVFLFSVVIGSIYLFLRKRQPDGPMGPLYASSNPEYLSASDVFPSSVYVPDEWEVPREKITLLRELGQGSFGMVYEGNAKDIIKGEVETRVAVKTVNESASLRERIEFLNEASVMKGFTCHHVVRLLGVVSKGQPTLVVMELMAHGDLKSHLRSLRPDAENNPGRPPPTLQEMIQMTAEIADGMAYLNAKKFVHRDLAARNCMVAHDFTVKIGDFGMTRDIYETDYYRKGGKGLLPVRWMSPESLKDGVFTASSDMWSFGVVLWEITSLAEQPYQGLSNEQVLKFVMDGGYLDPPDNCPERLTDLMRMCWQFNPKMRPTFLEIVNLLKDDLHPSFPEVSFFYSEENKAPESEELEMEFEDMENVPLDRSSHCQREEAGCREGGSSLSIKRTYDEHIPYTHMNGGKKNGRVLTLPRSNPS

[7] = DRUGMATRIX: Sodium/nucleoside co-transporter radioligand binding (ligand: nitrobenzylthioinosine); type: cell membranes, Cavia porcellus, Dunkin-Hartley, Cerebral cortex, Membrane; details: Not Active = under 50% inhibition at 10 µM
[8] = molecular target: Platelet-activating factor receptor (Homo sapiens, UniProt P25105); type: tissue-based; further: in other assays of this panel Not Active means under 50% inhibition at 10 µM
Chain of Platelet-activating factor receptor (P25105 whole entry): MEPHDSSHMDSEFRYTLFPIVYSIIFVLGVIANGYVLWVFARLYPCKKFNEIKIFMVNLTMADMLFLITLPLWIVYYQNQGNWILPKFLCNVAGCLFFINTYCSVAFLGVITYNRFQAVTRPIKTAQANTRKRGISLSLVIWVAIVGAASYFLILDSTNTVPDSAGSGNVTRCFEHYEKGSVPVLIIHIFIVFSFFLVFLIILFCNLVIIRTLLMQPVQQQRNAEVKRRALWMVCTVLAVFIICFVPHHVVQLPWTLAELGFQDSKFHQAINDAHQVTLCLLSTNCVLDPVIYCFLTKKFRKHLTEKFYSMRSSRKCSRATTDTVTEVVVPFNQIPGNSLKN

[9] = molecular target: Matrix metalloproteinase-9 (Homo sapiens, UniProt P14780); test: biochemical; type: cell-based
Chain of Matrix metalloproteinase-9 (P14780 whole entry): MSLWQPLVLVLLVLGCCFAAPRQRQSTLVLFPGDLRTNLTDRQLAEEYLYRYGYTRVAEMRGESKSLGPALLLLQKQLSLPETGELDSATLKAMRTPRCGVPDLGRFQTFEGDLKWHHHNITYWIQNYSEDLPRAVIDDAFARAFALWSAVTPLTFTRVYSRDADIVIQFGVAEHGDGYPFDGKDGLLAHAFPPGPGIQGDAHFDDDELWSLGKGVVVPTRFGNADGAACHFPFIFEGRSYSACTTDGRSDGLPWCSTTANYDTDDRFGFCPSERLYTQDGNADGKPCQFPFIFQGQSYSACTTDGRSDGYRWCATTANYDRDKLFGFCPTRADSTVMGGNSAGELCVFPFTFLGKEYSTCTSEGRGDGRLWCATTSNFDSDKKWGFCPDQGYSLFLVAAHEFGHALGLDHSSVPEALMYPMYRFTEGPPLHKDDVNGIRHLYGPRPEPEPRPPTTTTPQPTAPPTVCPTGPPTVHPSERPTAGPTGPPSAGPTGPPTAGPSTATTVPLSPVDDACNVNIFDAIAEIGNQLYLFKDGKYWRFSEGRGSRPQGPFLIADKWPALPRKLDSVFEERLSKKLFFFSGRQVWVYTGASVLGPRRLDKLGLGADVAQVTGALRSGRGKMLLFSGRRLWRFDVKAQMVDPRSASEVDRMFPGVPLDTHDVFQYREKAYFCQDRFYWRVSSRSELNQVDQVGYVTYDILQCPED

Chain of Cytochrome P450 2E1 (P05181 whole entry): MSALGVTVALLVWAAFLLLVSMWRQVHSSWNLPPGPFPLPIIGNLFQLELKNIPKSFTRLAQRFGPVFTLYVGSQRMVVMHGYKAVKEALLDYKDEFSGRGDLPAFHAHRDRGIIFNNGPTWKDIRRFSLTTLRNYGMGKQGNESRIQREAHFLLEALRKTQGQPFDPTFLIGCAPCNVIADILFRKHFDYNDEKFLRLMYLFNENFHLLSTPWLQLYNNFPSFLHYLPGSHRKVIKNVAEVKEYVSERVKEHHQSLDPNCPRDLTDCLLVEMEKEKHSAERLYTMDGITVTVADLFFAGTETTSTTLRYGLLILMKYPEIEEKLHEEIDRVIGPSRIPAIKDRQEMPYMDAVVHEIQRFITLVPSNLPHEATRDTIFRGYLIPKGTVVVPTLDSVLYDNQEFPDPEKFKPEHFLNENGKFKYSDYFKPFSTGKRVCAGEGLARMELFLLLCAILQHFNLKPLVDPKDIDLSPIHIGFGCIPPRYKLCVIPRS

NYSTATIN
Not Active: IC50 [1] | Ki [1] | IC50 [2] | Ki [2] | IC50 [3] | Ki [3] | IC50 [4] | Ki [4] | IC50 [5] | Ki [5] | IC50 [6] | Ki [6] | IC50 [7] | Ki [7] | IC50 [8] | Ki [8] | IC50 [9] | Ki [9]

COC(=O)Nc1nc2ccc([S+]([O-])c3ccccc3)cc2[nH]1 (configuration not stated) [OXFENDAZOLE]
Not Active: IC50 [1] | Ki [1] | IC50 [2] | Ki [2] | IC50 [3] | IC50 [4] | Ki [4] | IC50 [5] | Ki [5] | IC50 [6] | IC50 [7] | Ki [7] | IC50 [8] | IC50 [9]

CCC1(C)CC(=O)NC1=O (configuration not stated) [ETHOSUXIMIDE]
Not Active: IC50 [1] | Ki [1] | IC50 [2] | Ki [2] | IC50 [3] | IC50 [4] | Ki [4] | IC50 [5] | Ki [5] | IC50 [6] | IC50 [7] | Ki [7] | IC50 [8] | IC50 [9]

Brc1c(NC2=NCCN2)ccc2nccnc12 [BRIMONIDINE]
Not Active: IC50 [1] | Ki [1] | IC50 [2] | Ki [2] | IC50 [3] | IC50 [4] | Ki [4] | IC50 [5] | Ki [5] | IC50 [6] | IC50 [7] | Ki [7] | IC50 [8] | IC50 [9]

CC[C@H]1CN2CCc3cc(OC)c(OC)cc3[C@@H]2C[C@@H]1C[C@H]1NCCc2cc(OC)c(OC)cc21 [EMETINE]
Not Active: IC50 [1] | Ki [1] | IC50 [2] | Ki [2] | IC50 [3] | IC50 [4] | Ki [4] | IC50 [5] | Ki [5] | IC50 [6] | IC50 [7] | Ki [7] | IC50 [8] | IC50 [9]

COC(=O)CCc1ccc(OCC(O)CNC(C)C)cc1 (configuration not stated) [ESMOLOL]
Not Active: IC50 [1] | Ki [1] | IC50 [2] | Ki [2] | IC50 [3] | IC50 [4] | Ki [4] | IC50 [5] | Ki [5] | IC50 [6] | IC50 [7] | Ki [7] | IC50 [8] | IC50 [9]

COc1ccc(C(=O)N2CCCC2=O)cc1
Not Active: IC50 [1] | Ki [1] | IC50 [2] | Ki [2] | IC50 [3] | IC50 [4] | Ki [4] | IC50 [5] | Ki [5] | IC50 [6] | IC50 [7] | Ki [7] | IC50 [8] | IC50 [9]

O=C(O)CCNC(=O)c1ccccc1 [BETAMIPRON]
Not Active: IC50 [1] | Ki [1] | IC50 [2] | Ki [2] | IC50 [3] | IC50 [4] | Ki [4] | IC50 [5] | Ki [5] | IC50 [6] | IC50 [7] | Ki [7] | IC50 [8] | IC50 [9]

O=c1cnn([C@@H]2O[C@H](CO)[C@@H](O)[C@H]2O)c(=O)[nH]1 [6-AZAURIDINE]
Not Active: IC50 [1] | Ki [1] | IC50 [2] | Ki [2] | IC50 [3] | IC50 [4] | Ki [4] | IC50 [5] | Ki [5] | IC50 [6] | IC50 [7] | Ki [7] | IC50 [8] | IC50 [9]

Cc1c(OCC(F)(F)F)ccnc1C[S+]([O-])c1nc2ccccc2[nH]1 (configuration not stated) [LANSOPRAZOLE]
Not Active: IC50 [1] | Ki [1] | IC50 [2] | Ki [2] | IC50 [3] | IC50 [4] | Ki [4] | IC50 [5] | Ki [5] | IC50 [6] | IC50 [7] | Ki [7] | IC50 [8] | IC50 [9]

C[C@@H]1C[C@H]2[C@@H]3CCC4=CC(=O)C=C[C@]4(C)[C@@]3(F)[C@@H](O)C[C@]2(C)[C@H]1C(=O)CO [DESOXIMETASONE]
Not Active: IC50 [1] | Ki [1] | IC50 [2] | Ki [2] | IC50 [3] | IC50 [4] | Ki [4] | IC50 [5] | Ki [5] | IC50 [6] | IC50 [7] | Ki [7] | IC50 [8] | IC50 [9]

O=C(c1ccccc1C(F)(F)F)N1CCC(Cc2ccccc2)CC1
Not Active: IC50 [1] | Ki [1] | IC50 [2] | Ki [2] | IC50 [3] | IC50 [4] | Ki [4] | IC50 [5] | Ki [5] | IC50 [6] | IC50 [7] | Ki [7] | IC50 [8] | IC50 [9]

Source: ChEMBL document CHEMBL1909046, “DrugMatrix in vitro pharmacology data”
